Measured values reported in patent US20100311691A1, “COMPOSITIONS OF S-ALKYLISOTHIOURONIUM DERIVATIVES FOR TREATING UPPER RESPIRATORY CONGESTION” (priority 2007, published 2010).

Legend:
[1] = system: upper respiratory tract and oral pharyngeal congestion; test: Summary comparison of diethylphosphate and bromide in upper respiratory tract and oral pharyngeal congestion; assay type: in vivo, subjects; settings: summary statement
[2] = system: nasal congestion, rhinitis and acute sinusitis; test: Example 4: case report Patient B (rhinitis and acute sinusitis), nasal drops; assay type: in vivo
Protocol: Patient B was admitted with a diagnosis of rhinitis and acute sinusitis. The patient complained of headaches, dizziness, and common cold. […] The radiological examination confirmed acute sinusitis. The patient was treated by puncture of the sinuses with the introduction of antiseptics, Cefazoline 1.0 administered intramuscularly 2 times per day, Loratidin tablets 10 mg and, locally, nasal drops of S-ethylisothiouronium diethylphosphate 2% were used 3-4 times per day. The treatment with S-ethylisothiouronium diethylphosphate led to an amelioration of the clinical symptoms and hyperemia of the nasal mucosa 1-2 days earlier than that obtained by the treatment with Olysin.

[3] = system: nasal congestion, rhino-sinusitis; test: Example 4: case report Patient A (rhino-sinusitis), nasal drops; assay type: in vivo; settings: for repeated administrations needed: nasal drops
Protocol: Patient A was admitted with a diagnosis of rhino-sinusitis. […] Clinical examination indicated hyperemia of the nasal mucosa, rhinorrhea, nasal obstruction with narrowing of the lower and medium nasal cornets. The patient was treated with, antibacterial medication, and the sinuses were drained by the introduction of antiseptics. In addition, 2-3 nasal drops of S-ethylisothiouronium diethylphosphate 1% were administered. The patient was treated during 3 days. As a result of the treatment with S-ethylisothiouronium diethylphosphate, an amelioration of the clinical symptoms was achieved 1-2 days earlier than that achieved by the treatment with S-ethylisothiouronium bromide (designated Olysin). Also, the repeated administration of S-ethylisothiouronium diethylphosphate was reduced to 2-3 times per day, and not 4-5 times as was necessary when administering Olysin.

nasal congestion = settings: unpublished studies; cited from earlier work

| Molecule | efficiency in alleviating congestion and symptoms, relative to S-ethylisothiouronium bromide [1] | side effects [1] | adverse effects ([2]; 2% nasal drops) | amelioration of clinical symptoms and hyperemia of the nasal mucosa earlier than with Olysin ([2]; 2% nasal drops 3-4 times per day, with Cefazoline, Loratidin, antiseptics) [days] | adverse effects / tachyphylaxis ([3]; 1% nasal drops) | amelioration of clinical symptoms earlier than with S-ethylisothiouronium bromide (Olysin) ([3]; 2-3 nasal drops of 1%, treated during 3 days, with antibacterial medication and sinus drainage) [days] | repeated administrations needed [3] | nasal decongestion (nasal congestion) | side effects (nasal congestion) |
| --- | --- | --- | --- | --- | --- | --- | --- | --- | --- |
| S-ethylisothiouronium diethylphosphate | more efficient than S-ethylisothiouronium bromide | little or no side effects | No adverse effects | 1 to 2 | No adverse effects or tachyphylaxis | 1 to 2 | 2-3 times per day | – | – |
| Br.CCSC(=N)N [Olysin, S-ethylisothiouronium bromide] | – | – | – | – | – | – | 4-5 times per day | moderate and short-term nasal decongestions | harmful side effects |
